# Values quoted from earlier work as cited in patent US10984362B2, “Methods for post-harvest crop pest management” (priority 2017, dated 2021).
# Read-outs that look alike come from different tables or passages of the source.
# Experiments:
# [1] = test system: tobacco moth and susceptible cigarette beetle; settings: 100% control of all development stages
# [2] = test system: resistant cigarette beetle; settings: 100% control of all development stages
# [3] = tobacco temperature 16-20 °C (61-68 °F), 300 ppm phosphine at the bale/case centre
smiles,measurement,setting,value
"P [Phosphine, phosphine]",Minimum Exposure Time,[1]; [3],6 days
same,Minimum Exposure Time,"[1]; tobacco temperature >20 °C (>68 °F), 200 ppm phosphine at the bale/case centre",4 days
same,Minimum Exposure Time,[2]; [3],12 days
same,Minimum Exposure Time,"[2]; tobacco temperature 20-25 °C (68-77 °F), 300 ppm phosphine at the bale/case centre",12 days
same,Minimum Exposure Time,"[2]; tobacco temperature 20-25 °C (68-77 °F), 700 ppm phosphine at the bale/case centre",10 days
same,Minimum Exposure Time,"[2]; tobacco temperature >25 °C (>77 °F), 300 ppm phosphine at the bale/case centre",12 days
same,Minimum Exposure Time,"[2]; tobacco temperature >25 °C (>77 °F), 600 ppm phosphine at the bale/case centre",6 days
